Data on one compound can be found in patent US20200237759A1, “DOSAGE REGIME AND METHOD FOR TREATING PULMONARY ARTERIAL HYPERTENSION” (Altavant Sciences GmbH, priority 2019, published 2020).

This data set is described as follows: Thermodynamic stability of crystalline forms. The class given is physicochemical. To be noted: compared to Form 1.

In the case of `CCOC(=O)[C@@H]1CC2(CCN(c3cc(O[C@H](c4ccc(Cl)cc4-c4ccccc4)C(F)(F)F)nc(N)n3)CC2)CN1` [Form 3, (S)-ethyl 8-(2-amino-6-((R)-1-(5-chloro-[1,1′-biphenyl]-2-yl)-2,2,2-trifluoroethoxy)pyrimidin-4-yl)-2,8-diazaspiro[4.5]decane-3-carboxylate], the thermodynamic stability entry was “substantially greater thermodynamic stability compared to Form 1”.
